Experiments:
[1] = target: T1, porcine pancreatic elastase (PPE) (Sus scrofa, UniProt P00772); assay: Elastase inhibition assay, fluorescent substrate MeOSuc-Ala-Ala-Pro-Val-AMC; assay type: biochemical; details: for IC50: 298 K; for inhibition at 22.5 µM: read-out: Inhibition rate of PPE
T1 construct: purchased Sigma-Aldrich (St. Louis, MO, United States)
Method: Elastase was selected as the enzyme target and MeOSuc-Ala-Ala-Pro-Val-AMC as the substrate for the enzymatic reaction. According to the principle of enzyme reactions, an in vitro target enzyme drug screening model was established by measuring the relative fluorescence intensity for drug screening and evaluation. The inhibition rate was measured using a FlexStation3 multifunctional plate reader (Molecular Devices, Shanghai, China). Elastase solution (50 μL, 5 × 10^−7 mol/L) was mixed with a fluorescent substrate (50 μL, 2 × 10^−5 mol/L), and Tris–HCl buffer solution was added to obtain a total volume of 200 μL. […] The excitation wavelength was adjusted to 380 nm, and the emission wavelength was recorded in the range 420–540 nm. A 200 μL buffer solution was used as the blank for reference. The relative fluorescence values of pure enzyme activity were recorded. Four monomer solutions of the same concentration were added separately and their relative fluorescence values were measured under the same conditions. The concentration of each monomer was varied in different samples to obtain IC50 values. Inhibition rate (%) was calculated as follows:
Inhibition rate(%)=RFUPPE−RFUDrugs+PPE/RFUPPE×100% (1)
where the relative fluorescence unit (RFU) PPE refers to the relative fluorescence measured when only PPE and the fluorescent substrate are present without any inhibitors, and RFU Drugs+PPE refers to the relative fluorescence measured when both PPE and the test drug inhibitor are present.

[2] = target: T1, porcine pancreatic elastase (PPE); assay: FT-IR spectra of PPE-monomer complexes; details: PPE 10 μM, flavonoid 100 μM
Method: FTIR spectra were obtained using the potassium bromide (KBr) compression method with a Nicolet IS-50 spectrometer (Thermo Fisher Scientific, Waltham, MA, United States). […] The sheets were then dried at 45 °C and pressed. Blank background for the PBS buffer sheets. The spectral region between 4,000 and 500 cm^−1 was selected to examine changes in the secondary structure resulting from enzyme-drug interactions. All samples were assayed after drying and the experimental conditions were consistent for each group of assays.

[3] = target: T1, porcine pancreatic elastase (PPE); assay: Synchronous fluorescence spectra of PPE; details: Δλ = 60 nm, PPE 2 μM, flavonoid 0-80 μM, 298 K
Method: For the synchronous fluorescence spectroscopy experiments, the configuration of the solution preparation was the same as that used in experiment 2.3. Synchronous fluorescence spectra of PPE-quercetin, PPE-hyperoside, PPE-luteolin, and PPE-luteoloside were recorded at 298 K.

[4] = target: T1, porcine pancreatic elastase (PPE); assay: Fluorescence resonance energy transfer and binding distance; details: [PPE] = [flavonoid] = 10 μM, 298 K
Method: The PPE-quercetin, PPE-hyperoside, PPE-luteolin, and PPE-luteoloside binding distances were calculated according to the fluorescence resonance energy transfer theory ([31]–[33]):
J=∑FD(λ)εA(λ)λ^4Δλ/∑FD(λ)Δλ (9)
where k^2 is the dipole moment spatial orientation factor, usually taking the average 2/3; φ is the quantum efficiency of PPE, usually a quantum efficiency of Try residues of 0.15; n is the refractive index of the medium, representing the average of water and organic matter; J is the overlap integral of the absorption spectra and the fluorescence spectra; and ɛA(λ) is the molar extinction coefficient ([34]–[36]).

[5] = target: T1, porcine pancreatic elastase (PPE); assay: CD spectroscopy, secondary structure of PPE; details: PPE 5 μM, flavonoid 2.5 μM, 298 K; for α-helix (%): PPE alone 7.50; for Random coil (%): PPE alone 41.00; for β-sheet (%): PPE alone 51.50
Method: The CD spectra of PPE, PPE-quercetin, PPE-hyperoside, PPE-luteolin, and PPE-luteoloside were obtained using an MOS-500 CD spectrometer (Biologic Science Instruments, Seyssinet-Pariset, France). […] Set at a temperature of 298 K. The signal was recorded from 190 to 260 nm using a path length of 1 mm, acquisition duration of 0.5 s, and scanning step of 2 nm. The CD spectra were averaged after performing three scans and correcting for the background value of the phosphate buffer. All results were documented as CD ellipticity in degrees.

[6] = target: T1, porcine pancreatic elastase (PPE); assay: UV-vis absorption spectra of PPE with flavonoid; details: PPE 5 μM, flavonoid 15 μM, 298 K
Method: The UV–vis absorption spectra of porcine pancreatic elastase PPE (2.5 mL) were recorded using a Cary 300 spectrometer (Agilent, San Diego, CA, United States) in a quartz cuvette with a path length of 10 mm. PPE concentration was fixed at 5 μM and the drug concentrations were 0 and 15 μM. Tris–HCl solution (pH 7.6) was used as the blank. The control group was a solution of four flavonoid monomers at a final concentration of 15 μM. The spectra were recorded in the range of 200–500 nm with a slit width of 2 nm at 298 K.

[7] = target: T1, porcine pancreatic elastase (PPE); assay: Intrinsic fluorescence quenching of PPE: Stern-Volmer, binding constants, thermodynamics; details: for Kd: Ka binding constant; for ΔH / ΔS: van't Hoff, 298, 303, 310 K
Method: Fluorescence measurements were performed using a model F-7000 fluorescence spectrometer (Hitachi, Tokyo, Japan). Elastase solution (2,000 μL in Tris–HCl buffer solution) was mixed with inhibitor solutions at different concentrations in a 1.0 cm quartz cell at 298, 303, and 310 K. The final concentrations of the four natural flavonoids and elastase were identical to those used to obtain the synchronous fluorescence spectra. The fluorescence emission spectra were recorded within the range of 285–500 nm, following excitation at 280 nm. The excitation and emission slit widths were set as 2.5 nm. The scan speed was 1,200 nm/min and the photomultiplier tube (PMT) voltage was 630 V. Fluorescence intensities were corrected for inner filter and dilution effects before analyzing the binding and quenching data.
To determine the type of fluorescence quenching of the monomer interacting with PPE, the Stern-Volmer equation was used ([20]–[22]):
F0/F=KSV[Q]+1=Kqτ0[Q]+1 (2)
where F0 and F are the fluorescence intensities of PPE before and after the addition of different monomer solutions, respectively, Ksv is the quenching constant, [Q] is the concentration of different drugs, Kq is the quenching rate constant, τ0 is the average fluorescence lifetime of the substance in the absence of a quencher, and τ0 for the general biological macromolecule is 1 × 10^−8 s ([20], [23], [24]).
According to the correction formula, the binding constant (Ka) and number of binding points (n) for the actions of the four monomers and PPE were calculated as follows ([25]–[27]):
lgF0−F/F=nlgKa−nlg1/[Q0]−[P0]F0−F/F0 (3)
where [ Q0 ] and [P0] are the drug and PPE concentrations, respectively.
where K is the binding constant of the interaction, R is the gas constant, ΔH, ΔG, and ΔS are enthalpy, Gibbs energy, and entropy change.

T1 sequence (P00772 27-266): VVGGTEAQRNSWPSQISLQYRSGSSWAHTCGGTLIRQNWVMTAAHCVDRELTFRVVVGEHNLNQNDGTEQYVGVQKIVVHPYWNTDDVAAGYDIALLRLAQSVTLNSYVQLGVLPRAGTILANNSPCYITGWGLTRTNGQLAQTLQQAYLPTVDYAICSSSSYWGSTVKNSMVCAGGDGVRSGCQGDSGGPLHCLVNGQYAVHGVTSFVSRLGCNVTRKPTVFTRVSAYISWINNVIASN

## O=c1c(O[C@@H]2O[C@H](CO)[C@H](O)[C@H](O)[C@H]2O)c(-c2ccc(O)c(O)c2)oc2cc(O)cc(O)c12 [hyperoside]
[1]
  IC50: 31 µM
  inhibition at 22.5 µM: 41.1%
[2]
  amide I band of PPE after addition (from 1638.45): 1633.14 cm⁻¹
[3]
  red shift of Trp synchronous fluorescence: 7 nm
[4]
  R0: 1.86 nm
  binding distance r: 2.40 nm
[5]
  decrease of α-helical structure: 1.20%
  α-helix (%): 6.30%
  Random coil (%): 46.34%
  β-sheet (%): 47.36%
[6]
  blue shift of maximum absorption peak of PPE (275 nm): 4 nm
[7]; 298 K
  KSV Stern-Volmer quenching constant: 5.47 10^4 L•mol^−1
  Kq quenching rate constant: 5.47 10^12 L•mol^−1•s^−1
  n number of binding sites: 1.58
  Kd: 24.6 µM
[7]; 303 K
  KSV Stern-Volmer quenching constant: 4.85 10^4 L•mol^−1
  Kq quenching rate constant: 4.85 10^12 L•mol^−1•s^−1
  n number of binding sites: 1.56
  ΔG: -6.874 kcal/mol
  Kd: 29.6 µM
[7]; 310 K
  KSV Stern-Volmer quenching constant: 4.78 10^4 L•mol^−1
  Kq quenching rate constant: 4.78 10^12 L•mol^−1•s^−1
  n number of binding sites: 1.35
  ΔG: -6.881 kcal/mol
  Kd: 31.3 µM
[7]
  ΔH: -6.5753 kcal/mol
  ΔS: −4.108 J/(mol•K)

## O=c1cc(-c2ccc(O)c(O)c2)oc2cc(O)cc(O)c12 [luteolin]
[1]
  IC50: 18.2 µM
  inhibition at 22.5 µM: 54.3%
[2]
  amide I band of PPE after addition (from 1638.45): 1632.53 cm⁻¹
[3]
  red shift of Trp synchronous fluorescence: 4 nm
[4]
  R0: 1.97 nm
  binding distance r: 2.67 nm
[5]
  decrease of α-helical structure: 0.96%
  α-helix (%): 6.54%
[6]
  blue shift of maximum absorption peak of PPE (275 nm): 3 nm
[7]; 298 K
  KSV Stern-Volmer quenching constant: 1.15 10^4 L•mol^−1
  Kq quenching rate constant: 1.15 10^12 L•mol^−1•s^−1
  n number of binding sites: 0.97
  Kd: 82.6 µM
[7]; 303 K
  KSV Stern-Volmer quenching constant: 1.04 10^4 L•mol^−1
  Kq quenching rate constant: 1.04 10^12 L•mol^−1•s^−1
  n number of binding sites: 1.11
  ΔG: -6.511 kcal/mol
  Kd: 95.2 µM
[7]; 310 K
  KSV Stern-Volmer quenching constant: 0.98 10^4 L•mol^−1
  Kq quenching rate constant: 0.98 10^12 L•mol^−1•s^−1
  n number of binding sites: 1.17
  ΔG: -6.52 kcal/mol
  Kd: 102 µM
[7]
  ΔH: -6.0327 kcal/mol
  ΔS: −6.585 J/(mol•K)

## O=c1c(O)c(-c2ccc(O)c(O)c2)oc2cc(O)cc(O)c12 [quercetin]
[1]
  inhibition at 22.5 µM: 22.2%
[2]
  amide I band of PPE after addition (from 1638.45): 1633.59 cm⁻¹
[4]
  R0: 1.91 nm
  binding distance r: 2.82 nm
[5]
  decrease of α-helical structure: 1.14%
  α-helix (%): 6.36%
  Random coil (%): 44.59%
  β-sheet (%): 49.05%
[7]; 298 K
  KSV Stern-Volmer quenching constant: 0.59 10^4 L•mol^−1
  Kq quenching rate constant: 0.59 10^12 L•mol^−1•s^−1
  n number of binding sites: 1.13
  ΔG: -5.153 kcal/mol
[7]; 303 K
  KSV Stern-Volmer quenching constant: 0.58 10^4 L•mol^−1
  Kq quenching rate constant: 0.58 10^12 L•mol^−1•s^−1
  n number of binding sites: 0.99
  ΔG: -5.208 kcal/mol
[7]; 310 K
  KSV Stern-Volmer quenching constant: 0.52 10^4 L•mol^−1
  Kq quenching rate constant: 0.52 10^12 L•mol^−1•s^−1
  n number of binding sites: 0.80
  ΔG: -5.284 kcal/mol
[7]
  ΔH: -1.901 kcal/mol
  ΔS: 45.6521 J/(mol•K)
